Data published in patent US20100041089A1, “IMPROVED METHOD FOR DETECTING CHEMICAL […]” (priority 2006, published 2010).

System: yeast genes (expressed mRNA)
Test: DNA chip measurement of expressed mRNA of yeast genes after culture with a toxic chemical substance
Assay type: cell-based, Saccharomyces cerevisiae S288C
Method in brief: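 S. cerevisiae S288C grown at 25 °C in YPD, exposed in log phase for 2 h to a toxicant at growth-inhibiting, non-lethal concentration. Cy3/Cy5-labelled cDNA from poly(A) mRNA hybridized to whole-genome chip at 65 °C >12 h. Ratio to untreated control, ≥2 significant.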

## S=C([S-])NCCNC(=S)[S-].[Zn+2] [(11), Zinc N,N′-ethylenebis(dithiocarbamate)]
Yeast gene YKL086W, cultured two hours with substance
  The level of expressed mRNA in the presence of chemical substance/The level of expressed mRNA in the absence of chemical substance: 0.7
Yeast gene YKL151C, cultured two hours with substance
  The level of expressed mRNA in the presence of chemical substance/The level of expressed mRNA in the absence of chemical substance: 2.3
Yeast gene YKL153W, cultured two hours with substance
  The level of expressed mRNA in the presence of chemical substance/The level of expressed mRNA in the absence of chemical substance: 2.1
Yeast gene YKL195W, cultured two hours with substance
  The level of expressed mRNA in the presence of chemical substance/The level of expressed mRNA in the absence of chemical substance: 1.0
Yeast gene YKR076W
  The level of expressed mRNA in the presence of chemical substance/The level of expressed mRNA in the absence of chemical substance: 18.6
Yeast gene YKR091W, cultured two hours with substance
  The level of expressed mRNA in the presence of chemical substance/The level of expressed mRNA in the absence of chemical substance: 1.1
Yeast gene YLL060C (detoxification protein gene)
  The level of expressed mRNA in the presence of chemical substance/The level of expressed mRNA in the absence of chemical substance: 14.1
Yeast gene YLL060C (stress protein genes)
  The level of expressed mRNA in the presence of chemical substance/The level of expressed mRNA in the absence of chemical substance: 14.1
Yeast gene YLR031W, cultured two hours with substance
  The level of expressed mRNA in the presence of chemical substance/The level of expressed mRNA in the absence of chemical substance: 0.7
Yeast gene YLR054C, cultured two hours with substance
  The level of expressed mRNA in the presence of chemical substance/The level of expressed mRNA in the absence of chemical substance: 0.7
Yeast gene YLR142W
  The level of expressed mRNA in the presence of chemical substance/The level of expressed mRNA in the absence of chemical substance: 3.8
Yeast gene YLR149C, cultured two hours with substance
  The level of expressed mRNA in the presence of chemical substance/The level of expressed mRNA in the absence of chemical substance: 2.8
Yeast gene YLR152C, cultured two hours with substance
  The level of expressed mRNA in the presence of chemical substance/The level of expressed mRNA in the absence of chemical substance: 3.6
Yeast gene YLR194C, cultured two hours with substance
  The level of expressed mRNA in the presence of chemical substance/The level of expressed mRNA in the absence of chemical substance: 1.4
Yeast gene YLR205C, cultured two hours with substance
  The level of expressed mRNA in the presence of chemical substance/The level of expressed mRNA in the absence of chemical substance: 0.4
Yeast gene YLR297W, cultured two hours with substance
  The level of expressed mRNA in the presence of chemical substance/The level of expressed mRNA in the absence of chemical substance: 3.5
Yeast gene YLR324W, cultured two hours with substance
  The level of expressed mRNA in the presence of chemical substance/The level of expressed mRNA in the absence of chemical substance: 0.9
Yeast gene YLR346C, cultured two hours with substance
  The level of expressed mRNA in the presence of chemical substance/The level of expressed mRNA in the absence of chemical substance: 0.5
Yeast gene YLR350W, cultured two hours with substance
  The level of expressed mRNA in the presence of chemical substance/The level of expressed mRNA in the absence of chemical substance: 0.9
Yeast gene YLR387C, cultured two hours with substance
  The level of expressed mRNA in the presence of chemical substance/The level of expressed mRNA in the absence of chemical substance: 0.9
Yeast gene YLR460C, cultured two hours with substance
  The level of expressed mRNA in the presence of chemical substance/The level of expressed mRNA in the absence of chemical substance: 14.3
Yeast gene YML117W, cultured two hours with substance
  The level of expressed mRNA in the presence of chemical substance/The level of expressed mRNA in the absence of chemical substance: 0.8
Yeast gene YML131W
  The level of expressed mRNA in the presence of chemical substance/The level of expressed mRNA in the absence of chemical substance: 14.4
Yeast gene YMR009W, cultured two hours with substance
  The level of expressed mRNA in the presence of chemical substance/The level of expressed mRNA in the absence of chemical substance: 2.1
Yeast gene YMR067C, cultured two hours with substance
  The level of expressed mRNA in the presence of chemical substance/The level of expressed mRNA in the absence of chemical substance: 1.1
Yeast gene YMR090W, cultured two hours with substance
  The level of expressed mRNA in the presence of chemical substance/The level of expressed mRNA in the absence of chemical substance: 8.8
Yeast gene YMR095C, cultured two hours with substance
  The level of expressed mRNA in the presence of chemical substance/The level of expressed mRNA in the absence of chemical substance: 2.1
Yeast gene YMR097C, cultured two hours with substance
  The level of expressed mRNA in the presence of chemical substance/The level of expressed mRNA in the absence of chemical substance: 1.5
Yeast gene YMR102C, cultured two hours with substance
  The level of expressed mRNA in the presence of chemical substance/The level of expressed mRNA in the absence of chemical substance: 1.5
Yeast gene YMR107W, cultured two hours with substance
  The level of expressed mRNA in the presence of chemical substance/The level of expressed mRNA in the absence of chemical substance: 3.0
Yeast gene YMR140W, cultured two hours with substance
  The level of expressed mRNA in the presence of chemical substance/The level of expressed mRNA in the absence of chemical substance: 0.7
Yeast gene YMR180C, cultured two hours with substance
  The level of expressed mRNA in the presence of chemical substance/The level of expressed mRNA in the absence of chemical substance: 0.7
Yeast gene YMR184W, cultured two hours with substance
  The level of expressed mRNA in the presence of chemical substance/The level of expressed mRNA in the absence of chemical substance: 1.5
Yeast gene YMR191W, cultured two hours with substance
  The level of expressed mRNA in the presence of chemical substance/The level of expressed mRNA in the absence of chemical substance: 2.3
Yeast gene YMR195W, cultured two hours with substance
  The level of expressed mRNA in the presence of chemical substance/The level of expressed mRNA in the absence of chemical substance: 1.1
Yeast gene YMR295C, cultured two hours with substance
  The level of expressed mRNA in the presence of chemical substance/The level of expressed mRNA in the absence of chemical substance: 1.2
Yeast gene YMR316W, cultured two hours with substance
  The level of expressed mRNA in the presence of chemical substance/The level of expressed mRNA in the absence of chemical substance: 1.5
Yeast gene YNL044W, cultured two hours with substance
  The level of expressed mRNA in the presence of chemical substance/The level of expressed mRNA in the absence of chemical substance: 1.1
Yeast gene YNL074C, cultured two hours with substance
  The level of expressed mRNA in the presence of chemical substance/The level of expressed mRNA in the absence of chemical substance: 1.3
Yeast gene YNL092W, cultured two hours with substance
  The level of expressed mRNA in the presence of chemical substance/The level of expressed mRNA in the absence of chemical substance: 0.7
Yeast gene YNL115C, cultured two hours with substance
  The level of expressed mRNA in the presence of chemical substance/The level of expressed mRNA in the absence of chemical substance: 1.1
Yeast gene YNL134C, cultured two hours with substance
  The level of expressed mRNA in the presence of chemical substance/The level of expressed mRNA in the absence of chemical substance: 5.0
Yeast gene YNL156C, cultured two hours with substance
  The level of expressed mRNA in the presence of chemical substance/The level of expressed mRNA in the absence of chemical substance: 1.4
Yeast gene YNL190W, cultured two hours with substance
  The level of expressed mRNA in the presence of chemical substance/The level of expressed mRNA in the absence of chemical substance: 1.0
Yeast gene YNL194C, cultured two hours with the chemical substance
  level of expressed mRNA in the presence of chemical substance / level in the absence of chemical substance: 17.1
Yeast gene YNL195C, cultured two hours with the chemical substance
  The level of expressed mRNA in the presence of chemical substance/The level of expressed mRNA in the absence of chemical substance: 2.9
Yeast gene YNL208W, cultured two hours with substance
  The level of expressed mRNA in the presence of chemical substance/The level of expressed mRNA in the absence of chemical substance: 2.5
Yeast gene YNL234W, cultured two hours with substance
  The level of expressed mRNA in the presence of chemical substance/The level of expressed mRNA in the absence of chemical substance: 1.3
Yeast gene YNL241C, cultured for two hours with substance
  The level of expressed mRNA in the presence of chemical substance/The level of expressed mRNA in the absence of chemical substance: 3.0
Yeast gene YNL281W, cultured two hours with substance
  The level of expressed mRNA in the presence of chemical substance/The level of expressed mRNA in the absence of chemical substance: 1.6
Yeast gene YNL300W, cultured two hours with substance
  The level of expressed mRNA in the presence of chemical substance/The level of expressed mRNA in the absence of chemical substance: 0.9
Yeast gene YNL305C, cultured two hours with substance
  The level of expressed mRNA in the presence of chemical substance/The level of expressed mRNA in the absence of chemical substance: 1.8
Yeast gene YNR064C, cultured two hours with substance
  The level of expressed mRNA in the presence of chemical substance/The level of expressed mRNA in the absence of chemical substance: 0.7
Yeast gene YNR068C, cultured two hours with substance
  The level of expressed mRNA in the presence of chemical substance/The level of expressed mRNA in the absence of chemical substance: 1.1
Yeast gene YOL032W, cultured two hours with substance
  The level of expressed mRNA in the presence of chemical substance/The level of expressed mRNA in the absence of chemical substance: 1.4
Yeast gene YOL036W, cultured two hours with substance
  The level of expressed mRNA in the presence of chemical substance/The level of expressed mRNA in the absence of chemical substance: 2.2
Yeast gene YOL047C, cultured two hours with substance
  The level of expressed mRNA in the presence of chemical substance/The level of expressed mRNA in the absence of chemical substance: 0.9
Yeast gene YOL071W, cultured two hours with substance
  The level of expressed mRNA in the presence of chemical substance/The level of expressed mRNA in the absence of chemical substance: 4.3
Yeast gene YOL082W, cultured two hours with substance
  The level of expressed mRNA in the presence of chemical substance/The level of expressed mRNA in the absence of chemical substance: 1.6
Yeast gene YOL083W, cultured two hours with substance
  The level of expressed mRNA in the presence of chemical substance/The level of expressed mRNA in the absence of chemical substance: 1.3
Yeast gene YOL117W, cultured two hours with substance
  The level of expressed mRNA in the presence of chemical substance/The level of expressed mRNA in the absence of chemical substance: 1.0
Yeast gene YOL131W, cultured two hours with substance
  The level of expressed mRNA in the presence of chemical substance/The level of expressed mRNA in the absence of chemical substance: 1.4
Yeast gene YOL150C, cultured two hours with substance
  The level of expressed mRNA in the presence of chemical substance/The level of expressed mRNA in the absence of chemical substance: 9.4
Yeast gene YOL152W
  The level of expressed mRNA in the presence of chemical substance/The level of expressed mRNA in the absence of chemical substance: 5.9
Yeast gene YOL162W, cultured two hours with substance
  The level of expressed mRNA in the presence of chemical substance/The level of expressed mRNA in the absence of chemical substance: 4.3
Yeast gene YOR019W, cultured two hours with substance
  The level of expressed mRNA in the presence of chemical substance/The level of expressed mRNA in the absence of chemical substance: 1.7
Yeast gene YOR178C, cultured two hours with the chemical substance
  The level of expressed mRNA in the presence of chemical substance/The level of expressed mRNA in the absence of chemical substance: 4.1
Yeast gene YOR197W, cultured two hours with substance
  The level of expressed mRNA in the presence of chemical substance/The level of expressed mRNA in the absence of chemical substance: 1.0
Yeast gene YOR215C, cultured two hours with substance
  The level of expressed mRNA in the presence of chemical substance/The level of expressed mRNA in the absence of chemical substance: 1.6
Yeast gene YOR225W, cultured two hours with substance
  The level of expressed mRNA in the presence of chemical substance/The level of expressed mRNA in the absence of chemical substance: 1.2
Yeast gene YOR248W, cultured two hours with substance
  The level of expressed mRNA in the presence of chemical substance/The level of expressed mRNA in the absence of chemical substance: 2.3
Yeast gene YOR382W, cultured two hours with substance
  The level of expressed mRNA in the presence of chemical substance/The level of expressed mRNA in the absence of chemical substance: 2.5
Yeast gene YPL052W, cultured two hours with substance
  The level of expressed mRNA in the presence of chemical substance/The level of expressed mRNA in the absence of chemical substance: 1.2
Yeast gene YPL087W, cultured two hours with substance
  The level of expressed mRNA in the presence of chemical substance/The level of expressed mRNA in the absence of chemical substance: 2.5
Yeast gene YPL171C, cultured for two hours with substance
  The level of expressed mRNA in the presence of chemical substance/The level of expressed mRNA in the absence of chemical substance: 37.0
Yeast gene YPL196W, cultured two hours with substance
  The level of expressed mRNA in the presence of chemical substance/The level of expressed mRNA in the absence of chemical substance: 1.7
Yeast gene YPL206C, cultured two hours with substance
  The level of expressed mRNA in the presence of chemical substance/The level of expressed mRNA in the absence of chemical substance: 1.5
Yeast gene YPL222W, cultured two hours with substance
  The level of expressed mRNA in the presence of chemical substance/The level of expressed mRNA in the absence of chemical substance: 1.2
Yeast gene YPR023C, cultured two hours with substance
  The level of expressed mRNA in the presence of chemical substance/The level of expressed mRNA in the absence of chemical substance: 1.7
Yeast gene YPR079W, cultured two hours with substance
  The level of expressed mRNA in the presence of chemical substance/The level of expressed mRNA in the absence of chemical substance: 0.8
Yeast gene YPR151C, cultured two hours with substance
  The level of expressed mRNA in the presence of chemical substance/The level of expressed mRNA in the absence of chemical substance: 1.4
